Molecular target: T1, ROCKII (1-543) (Homo sapiens (Human), UniProt O75116)
Assay: Luciferin-Luciferase Assay (Assay 1)
Type: biochemical
Conditions: luciferin-luciferase residual ATP; 750 nM ATP, 7.5 nM kinase
Protocol: 1. Luciferin-Luciferase Assay
Target sequence in this assay (O75116 1-543): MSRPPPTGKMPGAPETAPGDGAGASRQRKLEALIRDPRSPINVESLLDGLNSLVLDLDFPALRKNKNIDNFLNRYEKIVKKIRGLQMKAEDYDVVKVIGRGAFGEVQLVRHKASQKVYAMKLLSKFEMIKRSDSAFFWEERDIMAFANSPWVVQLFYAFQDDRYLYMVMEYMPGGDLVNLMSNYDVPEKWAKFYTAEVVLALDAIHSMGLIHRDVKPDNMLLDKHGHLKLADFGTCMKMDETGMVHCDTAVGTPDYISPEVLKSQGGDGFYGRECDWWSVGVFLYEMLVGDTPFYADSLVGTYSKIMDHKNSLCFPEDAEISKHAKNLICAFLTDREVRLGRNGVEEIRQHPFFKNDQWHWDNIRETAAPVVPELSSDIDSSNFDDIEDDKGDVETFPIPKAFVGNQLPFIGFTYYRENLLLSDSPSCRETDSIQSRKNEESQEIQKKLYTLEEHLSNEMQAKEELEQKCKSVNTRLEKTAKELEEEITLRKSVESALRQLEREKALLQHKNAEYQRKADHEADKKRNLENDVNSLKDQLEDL
The activity of ROCKII (1-543) kinase is measured utilizing Cambrex PKLight ATP Detection Reagent, a homogeneous assay technology using luciferin-luciferase to quantify residual ATP. The assay is performed in 384-well low-volume, white, non-binding surface microtiter plates (Corning). The assay buffer is 25 mM HEPES, pH 7.5, 10 mM MgCl2, 50 mM KCl, 0.2% BSA, 0.01% CHAPS, 100 μM Na3VO4 and 0.5 mM DTT. Test compounds, dissolved in neat DMSO at 500 μg/mL, are serially diluted for dose response for a final starting concentration of 3 μg/mL in 1% DMSO of assay buffer. ROCKII (1-543) (62,408 Da) is diluted in assay buffer to a final concentration of 7.5 nM in a total volume of 15 μL. Positive controls are reaction mixtures containing no test compound; negative controls (blanks) are reaction mixtures containing no kinase. After 15 minutes of pre-incubation of the test compounds with the kinase, a mixture of ATP and peptide substrate ([…]) in assay buffer is added to each well for a final concentration of 750 nM ATP and 500 nM peptide, respectively. After 90 minutes of incubation of the kinase reaction at 28° C. temperature, 10 μL of PKLight ATP Detection Reagent (warmed to room temperature previously) is added to each well. The assay plate is incubated at room temperature for additional 15 minutes and then read on an Analyst in luminescence mode. Dose-response experiments for each of the test compounds are conducted in quadruplet. IC50 values of test compounds represent 50% response of the positive control from the dose-response curve.

SMILES	IC50
CN1CCc2ccc(NC(=O)c3cccc(CNC(=O)c4cn5ccc(C#N)cc5n4)c3)cc2C1 [compound 18]	19.3 nM
N[C@@H]1CCc2nc(NC(=O)c3cccc(CNC(=O)c4ccc(-c5csnn5)cc4)c3)sc2C1 [compound 24]	14.3 nM
CN1CCc2ccc(NC(=O)c3cccc(CNC(=O)c4csc(-c5ccncc5)n4)c3)cc2C1 [compound 33]	33 nM
CN1CCc2ccc(NC(=O)c3cccc(CNC(=O)c4cccc(-c5cccnc5)c4)c3)cc2C1 [compound 53]	28 nM

Continued, values first:

IC50	SMILES
43.5 nM	Cc1nnnn1-c1ccc(C(=O)NCc2cccc(C(=O)Nc3ccc4c(c3)CN(C)CC4)c2)cc1 [compound 37]
35.5 nM	CN1CCc2ccc(NC(=O)c3cccc(CNC(=O)c4cn5cc(C#N)ccc5n4)c3)cc2C1 [compound 48]
18.5 nM	CN1CCc2ccc(NC(=O)c3cccc(CNC(=O)c4ccc(-c5cccnc5)s4)c3)cc2C1 [compound 62, 5-pyridin-3-yl-thiophene-2-carboxylic acid 3-(2-methyl-1,2,3,4-tetrahydro-isoquinolin-7-ylcarbamoyl)-benzylamide]
64.2 nM	Cc1ncc(-c2ccc(C(=O)NCc3cccc(C(=O)Nc4ccc5c(c4)CN(C)CC5)c3)s2)o1 [compound 68]

Molecular target: T1, ROCKII (1-543)
Assay: IMAP Assay (Assay 2)
Type: biochemical
Conditions: IMAP fluorescence polarization; 100 μM ATP, 1 nM kinase
Protocol: This assay is performed using FAM S6 substrate peptide (Catalogue #R7184) and IMAP FP Screening Express Kit detection reagents from Molecular Devices (Sunnyvale, Calif.) in IMAP kinase reaction buffer (Tris-HCl, pH 7.2, 10 mM MgCl2, 0.05% NaN3, 0.1% phosphate-free BSA) containing 1 mM DTT. Test compounds dissolved in neat DMSO at 0.3 mg/mL are serially diluted 1 to 3 for concentration response in 100% DMSO. The DMSO serial dilutions are further diluted 33.33-fold in kinase reaction buffer, and 10 μL of this buffer dilution is transferred to Corning black 96-well half area NBS plates for a final top concentration of 3 μg/mL in 1% DMSO. 10 μL aliquot of 3 nM ROCKII (1-543) diluted in kinase reaction buffer is added to each assay well for a final concentration of 1 nM kinase. 10 μL of a mixture of 600 nM FAM S6 peptide and 300 μM ATP diluted in kinase reaction buffer is added to each well for a final concentration of 200 nM peptide and 100 μM ATP. The kinase reaction mixture is incubated for 60 minutes at room temperature. Positive controls are reaction mixtures containing no test compound and negative controls (blanks) are reaction mixtures containing no kinase. The kinase reaction is stopped by addition of 60 μL IMAP progressive binding reagent (Catalog #R7284) diluted 400-fold in 1× Binding buffer A. After 30 min of incubation at room temperature, the plates are read for fluorescence polarization on Analyst Plate Reader using Ex 485 nm, Em 530 nm, and FL 505 dichroic minor. The mP signals are converted to percent of control (POC) values using the formula: POC=100*(Signal−BCTRL)÷(PCTRL−BCTRL)
Where Signal is the test well signal, BCTRL is the average of background (negative control) well signals on the plate and PCTRL is the average of positive control well signals on the plate. For the concentration-responsive compounds, POC as a function of test compound concentration is fitted to a 4-parameter logistic equation of the form: Y=A+(B−A)/[1+(x/C)D]
Where A, B, C, and D are fitted parameters (parameter B is fixed at zero POC), and x and y are the independent and dependent variables, respectively. The IC50 is determined as the inflection point parameter, C.
Target sequence in this assay (O75116 1-543, species assumed): as the sequence (O75116 1-543) above

SMILES	IC50
CN1CCc2nc(NC(=O)c3cccc(CNC(=O)c4ccc(-n5ccnc5)cc4)c3)sc2C1 [compound 2]	1.9 nM
CN1CCc2nc(NC(=O)c3cccc(CNC(=O)c4ccc5cc(O)ccc5c4)c3)sc2C1 [compound 20]	0.39 nM
CN1CCc2nc(NC(=O)c3cccc(CNC(=O)c4ccc(-c5ccncc5)cc4)c3)sc2C1 [compound 56]	0.26 nM
CN1CCc2ccc(NC(=O)c3cccc(CNC(=O)c4cc5ccc(C(N)=O)cc5n4C)c3)cc2C1 [compound 84]	0.26 nM
Cc1nnnn1-c1ccc(C(=O)NCc2cccc(C(=O)Nc3nc4c(s3)C[C@@H](N(C)C)CC4)c2)cc1 [compound 104]	0.43 nM
CN1CCc2nc(NC(=O)c3cccc(CNC(=O)c4ccc(-c5ccncc5)s4)c3)sc2C1 [compound 112]	0.18 nM
CN(C)[C@H]1CCc2nc(NC(=O)c3cccc(CNC(=O)c4ccc(-c5ccncc5)s4)c3)sc2C1 [compound 126]	0.27 nM
CN(C)[C@H]1CCc2nc(NC(=O)c3cccc(CNC(=O)c4cccc(-c5cn[nH]c5)c4)c3)sc2C1 [compound 132]	0.32 nM
CN(C)[C@H]1CCc2nc(NC(=O)c3cccc(CNC(=O)c4ccc(-n5ccnc5)cc4)c3)sc2C1 [compound 134]	0.24 nM
Cc1c(C(=O)NCc2cccc(C(=O)Nc3nc4c(s3)C[C@@H](N(C)C)CC4)c2)nnn1-c1nonc1N [compound 142]	0.33 nM
O=C(Nc1nc2c(s1)C[C@@H](N1CCOCC1)CC2)c1cccc(CNC(=O)c2csc(-c3cccnc3)n2)c1 [compound 146]	0.73 nM
Nc1nonc1-n1nnc(C(=O)NCc2cccc(C(=O)Nc3nc4c(s3)C[C@@H](N3CCOCC3)CC4)c2)c1-c1ccccc1 [compound 150]	2.65 nM
O=C(NCc1cccc(C(=O)Nc2nc3c(s2)C[C@@H](N2CCOCC2)CC3)c1)c1ccc(-c2cnco2)cc1 [compound 162]	0.43 nM
O=C(Nc1nc2c(s1)C[C@@H](N1CCOCC1)CC2)c1cccc(CNC(=O)c2csc(-c3ccncc3)n2)c1 [compound 164]	0.93 nM
Cc1nc(-c2ccncc2)sc1C(=O)NCc1cccc(C(=O)Nc2nc3c(s2)C[C@@H](N2CCOCC2)CC3)c1 [compound 168]	0.37 nM
CN1CCc2ccc(NC(=O)c3cccc(CNC(=O)N4CCc5c(C#N)cccc54)c3)cc2C1 [compound 201, 4-cyano-2,3-dihydro-indole-1-carboxylic acid 3-(2-methyl-1,2,3,4-tetrahydro-isoquinolin-7-ylcarbamoyl)-benzylamide]	34 nM
CN1CCc2ccc(NC(=O)c3cccc(CNC(=O)c4nc(-c5cccnc5)cs4)c3)cc2C1 [compound 202]	72 nM
CN(C)[C@H]1CCc2nc(NC(=O)c3cccc(CNC(=O)c4cc(-c5ccncc5)[nH]n4)c3)sc2C1 [compound 207]	0.2 nM

Other lines, results leading:

IC50	SMILES
0.21 nM	CN1CCc2nc(NC(=O)c3cccc(CNC(=O)c4ccc(-c5cnco5)cc4)c3)sc2C1 [compound 12]
4.8 nM	N[C@@H]1CCc2nc(NC(=O)c3cccc(CNC(=O)c4csc(-c5ccncc5)n4)c3)sc2C1 [compound 32]
0.25 nM	CN1CCc2ccc(NC(=O)c3cccc(CNC(=O)c4ccc(-c5ccncc5)s4)c3)cc2C1 [compound 70]
0.17 nM	CN1CCc2ccc(NC(=O)c3cccc(CNC(=O)c4ccc(-c5cn[nH]c5)s4)c3)cc2C1 [compound 78, 5-(1H-pyrazol-4-yl)-thiophene-2-carboxylic acid 3-(2-methyl-1,2,3,4-tetrahydro-isoquinolin-7-ylcarbamoyl)-benzylamide]
0.27 nM	CN(C)[C@H]1CCc2nc(NC(=O)c3cccc(CNC(=O)c4cn5ccc(C#N)cc5n4)c3)sc2C1 [compound 98]
0.22 nM	CN(C)[C@H]1CCc2nc(NC(=O)c3cccc(CNC(=O)c4ccc(-c5ccncc5)cc4)c3)sc2C1 [compound 106]
0.32 nM	CN(C)[C@H]1CCc2nc(NC(=O)c3cccc(CNC(=O)c4csc(-c5cccnc5)n4)c3)sc2C1 [compound 108]
0.45 nM	CN1CCc2nc(NC(=O)c3cccc(CNC(=O)c4ccc(-c5cnco5)s4)c3)sc2C1 [compound 114]
0.77 nM	CN1CCc2nc(NC(=O)c3cccc(CNC(=O)c4ccc(-c5cn[nH]c5)s4)c3)sc2C1 [compound 120]
0.37 nM	CN(C)[C@H]1CCc2nc(NC(=O)c3cccc(CNC(=O)c4ccc(-c5cnco5)s4)c3)sc2C1 [compound 128]
0.22 nM	CN(C)[C@H]1CCc2nc(NC(=O)c3cccc(CNC(=O)c4ccc(-c5cn[nH]c5)s4)c3)sc2C1 [compound 130]
0.2 nM	CN(C)[C@H]1CCc2nc(NC(=O)c3cccc(CNC(=O)c4ccc(-c5cnco5)cc4)c3)sc2C1 [compound 136]
0.21 nM	CN(C)[C@H]1CCc2nc(NC(=O)c3cccc(CNC(=O)c4nnn(-c5nonc5N)c4-c4ccccc4)c3)sc2C1 [compound 138]
0.87 nM	CN(C)[C@H]1CCc2nc(NC(=O)c3cccc(CNC(=O)c4csc(-c5ccncc5)n4)c3)sc2C1 [compound 140]
0.52 nM	N#Cc1ccn2cc(C(=O)NCc3cccc(C(=O)Nc4nc5c(s4)C[C@@H](N4CCOCC4)CC5)c3)nc2c1 [compound 148]
0.34 nM	O=C(Nc1nc2c(s1)C[C@@H](N1CCOCC1)CC2)c1cccc(CNC(=O)c2cc(-c3ccncc3)[nH]n2)c1 [compound 166]
0.41 nM	O=C(NCc1cccc(C(=O)Nc2nc3c(s2)C[C@@H](N2CCOCC2)CC3)c1)c1cccc(-c2cn[nH]c2)c1 [compound 170]
0.38 nM	O=C(NCc1cccc(C(=O)Nc2nc3c(s2)C[C@@H](N2CCOCC2)CC3)c1)c1ccc(-n2ccnc2)cc1 [compound 172]
0.35 nM	Cc1nnnn1-c1ccc(C(=O)NCc2cccc(C(=O)Nc3nc4c(s3)C[C@@H](N3CCOCC3)CC4)c2)cc1 [compound 174]
0.87 nM	N#Cc1ccc2cc(C(=O)NCc3cccc(C(=O)Nc4nc5c(s4)C[C@@H](N4CCOCC4)CC5)c3)[nH]c2c1 [compound 176]
0.25 nM	Cc1nc(-c2ccncc2)sc1C(=O)NCc1cccc(C(=O)Nc2nc3c(s2)C[C@@H](N(C)C)CC3)c1 [compound 205]
3.7 nM	CN1CCc2nc(NC(=O)c3cccc(CNC(=O)c4cn5cc(C(N)=O)ccc5n4)c3)sc2C1 [compound 209]

— US8697911B2, “Rho kinase inhibitors” (Boehringer Ingelheim International GmbH, priority 2010, dated 2014)
